Read-outs that look alike come from different tables or passages of the source.
Assays:
OGG1 = OGG1 (Homo sapiens (Human), UniProt O15527); assay: In vitro OGG1 activity assay; assay type: biochemical; conditions: 800 pM OGG1 enzyme, 2 nM human APEX1, 10 nM 8-oxoA:C substrate
In short: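 Fluorescence-release assay on a duplex oligonucleotide carrying an OGG1 substrate base beside a fluorophore, quenched from the complementary strand. Excess APEX1 cleaves the abasic site left by base excision, melting the duplex and unquenching the fluorophore. Compounds in DMSO were dispensed before enzyme and substrate, and fluorescein signal was read.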

MLE12 cells = assay: Cell viability assay in MLE12 cells (resazurin); assay type: cell-based, mouse; conditions: TNF-α 20 ng/ml, resazurin added after 24 hours culture
Procedure: (§1) Stock solutions (10 mM in DMSO) of compounds were dispensed in V-bottom 384-well plates and the following dilutions were prepared: 10 mM and 0.05 mM. The dilutions were transferred to the source plate. Duplicate 6 points dose-response curves of compounds were nano-dispensed in cell plates (CCL2 assay) and in parallel, 11 points DR curves in duplicates were nano-dispensed for the viability assay. The plates were heat sealed and kept at RT until use.
(§2) MLE12 cells in flasks were washed once with PBS, detached with Trypsin/EDTA, resuspended in fresh medium and counted. Cells were diluted to 3×10^5 cells/ml and seeded with Multidrop Combi in cell plates pre-dispensed with compounds, 25 μl/well (7500 cells/well). The plates were placed, one by one, in a CO2-incubator at 37° C. for 1 hour after which 25 μl/well of TNF-α (final concentration 20 ng/ml) were added. The plates were transferred back to the CO2-incubator placed in a plastic box with wet tissue in the bottom, to avoid evaporation, for 30 hours.
After 24 hours culture, resazurin reagent (stock 1 mg/ml in PBS) diluted 1:17 in PBS was added with Multidrop Combi, 10 μl/well, and plates were incubated for 6 hours. Plates were read in Sense plate reader with resorufin protocol (ex544 nm/em595 nm). The results were imported to an excel template where the EC50 values were calculated using XLfit.

CCL2 = assay: Mouse CCL2 assay in MLE12 cells; assay type: cell-based
Text: Cisbio mouse CCL2 assay is intended for the quantitative measurement of CCL2 in supernatant using HTRF® technology. The assay is compatible with mouse samples, and is highly specific for CCL2. CCL2 is detected in a sandwich assay format using 2 different specific antibodies, one labeled with Cryptate (donor) and the second with d2 (acceptor). The detection principle is based on HTRF® technology. When the labelled antibodies bind to the same antigen, the excitation of the donor with a light source (laser or flash lamp) triggers a Fluorescence Resonance Energy Transfer (FRET) towards the acceptor, which in turn fluoresces at a specific wavelength (665 nm). The two antibodies bind to the CCL2 present in the sample, thereby generating FRET. Signal intensity is proportional to the number of antigen-antibody complexes formed and therefore to the CCL2 concentration. • Materials: • Cells: MLE12 (Mouse Lung Epithelial cells, SV40 transformed) • Medium: DMEM/F12 (Gibco #11330057), FBS 5% (Gibco #10500064), Pen/Strep 50 U/50 μg/ml (Gibco #15070063) • Cell plates: 384-well, black/clear, TC-treated (Corning #3764) • Source plate: Labcyte LDV 384 (Labcyte #LP-0200) • Compound dilution plate: V-bottom 384-well PP plate (Greiner #781280) • Compounds: 10 mM stocks in DMSO • HTRF plates: 384-well, white, half area, non-binding (Costar #3824) • Mouse CCL2 kit: Cisbio 62MCCL2PEH • Other reagents: Trypsin/EDTA 10× (Gibco #15400054), PBS (Gibco #14190169), Resazurin (Sigma-Aldrich #199303), 1 mg/ml in PBS, TNF-α 200 μg/ml in PBS (Peprotech #300-01A) • Instruments: • Echo liquid handler (Labcyte) • Multidrop Combi (Thermo Scientific) • Sense plate reader (Hidex) Compound Handling:
as §1, §2
After 30 hours incubation, the plates were spun down 5 minutes at 400 g, and 16 μl/well of the supernatants were transferred to the assay plate. A mCCL2 standard curve was prepared according to the kit protocol and 16 μl/well of the standards were also added to the assay plate.
The anti-CCL2 antibody mix was prepared according to the kit protocol, and 4 μl/well were added to the assay plate. The plate was sealed and incubated over night at RT. After incubation the plate was read in Sense plate reader with Time-resolved FRET protocol (Ex330 nm/Em 620 and 665 nm). After data reduction, the delta ratios were imported to an excel template where the IC50 values were calculated.

[1] = Mus musculus, MLE12, 30 h, read-out: CCL2 (EC50, nM)
[2] = Mus musculus, MLE12, 30 h, MLE12 cells, TNF-α 20 ng/ml, supernatant after 30 hours, HTRF, read-out: CCL2 (EC50)

Chain of OGG1 (O15527 whole entry): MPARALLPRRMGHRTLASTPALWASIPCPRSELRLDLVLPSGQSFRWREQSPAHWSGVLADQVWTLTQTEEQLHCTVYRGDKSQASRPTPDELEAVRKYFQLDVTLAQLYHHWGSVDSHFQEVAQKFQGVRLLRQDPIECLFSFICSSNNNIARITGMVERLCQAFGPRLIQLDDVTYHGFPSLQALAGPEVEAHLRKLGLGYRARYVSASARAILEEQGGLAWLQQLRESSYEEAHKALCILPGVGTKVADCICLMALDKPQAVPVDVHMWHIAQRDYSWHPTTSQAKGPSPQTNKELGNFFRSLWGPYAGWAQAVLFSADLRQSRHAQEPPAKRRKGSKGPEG

SMILES	IC50 (OGG1)	EC50 (CCL2; [2])	EC50 (CCL2; MLE12 cells, TNF-α 20 ng/ml, supernatant after 30 hours, HTRF, read-out: CCL2 (EC50))	IC50 (MLE12 cells; Mus musculus)	EC50 (CCL2; [1])	IC50 (MLE12 cells; Mus musculus, MLE12, 24 h)	IC50 (MLE12 cells)
Cc1cc(NC(=O)N2C3CCC2CC(n2c(=O)[nH]c4c(Br)cccc42)C3)ccc1I (stereo not drawn) [Example 84, 3-(4-Bromo-2-oxo-2,3-dihydro-1H-1,3-benzodiazol-1-yl)-N-(4-iodo-3-methylphenyl)-(endo)-8-azabicyclo[3.2.1]octane-8-carboxamide]	0.03 µM	–	–	8.14 µM	23900 nM	–	–
COc1cc(NC(=O)N2C3CCC2CC(n2c(=O)[nH]c4c(Br)cccc42)C3)ccc1C (stereo not drawn) [Example 85, 3-(4-Bromo-2-oxo-2,3-dihydro-1H-1,3-benzodiazol-1-yl)-N-(3-methoxy-4-methylphenyl)-(endo)-8-azabicyclo[3.2.1]octane-8-carboxamide]	0.033 µM	–	–	17.2 µM	39200 nM	–	–
O=C(Nc1ccc(Cl)c(F)c1)N1C2CCC1CC(n1c(=O)[nH]c3c(Br)cccc31)C2 (stereo not drawn) [Example 86, 3-(4-Bromo-2-oxo-2,3-dihydro-1H-1,3-benzodiazol-1-yl)-N-(4-chloro-3-fluorophenyl)-(endo)-8-azabicyclo[3.2.1]octane-8-carboxamide]	0.059 µM	–	–	13.7 µM	19400 nM	–	–
Cc1cc(NC(=O)N2C3CCC2CC(n2c(=O)[nH]c4c(-c5ccc(CO)nc5)cccc42)C3)ccc1I (stereo not drawn) [Example 91, 3-{4-[6-(Hydroxymethyl)pyridin-3-yl]-2-oxo-2,3-dihydro-1H-1,3-benzodiazol-1-yl}-N-(4-iodo-3-methylphenyl)-(endo)-8-azabicyclo[3.2.1]octane-8-carboxamide]	0.058 µM	12600 nM	–	–	–	6.45 µM	–
COc1cc(NC(=O)N2C3CCC2CC(n2c(=O)[nH]c4c(-c5ccc(CO)nc5)cccc42)C3)ccc1C (stereo not drawn) [Example 92, 3-{4-[6-(Hydroxymethyl)pyridin-3-yl]-2-oxo-2,3-dihydro-1H-1,3-benzodiazol-1-yl}-N-(3-methoxy-4-methylphenyl)-(endo)-8-azabicyclo[3.2.1]octane-8-carboxamide]	0.084 µM	38800 nM	–	–	–	13.7 µM	–
COc1cc(NC(=O)N2C3CCC2CC(n2c(=O)[nH]c4c(-c5ccc(CO)nc5)cccc42)C3)ccc1Cl (stereo not drawn) [Example 93, N-(4-chloro-3-methoxyphenyl)-3-{4-[6-(hydroxymethyl)pyridin-3-yl]-2-oxo-2,3-dihydro-1H-1,3-benzodiazol-1-yl}-(endo)-8-azabicyclo[3.2.1]octane-8-carboxamide]	0.091 µM	34900 nM	–	–	–	21.3 µM	–
O=C(Nc1ccc(Cl)c(F)c1)N1C2CCC1CC(n1c(=O)[nH]c3c(-c4ccc(CO)nc4)cccc31)C2 (stereo not drawn) [Example 94, N-(4-chloro-3-fluorophenyl)-3-{4-[6-(hydroxymethyl)pyridin-3-yl]-2-oxo-2,3-dihydro-1H-1,3-benzodiazol-1-yl}-(endo)-8-azabicyclo[3.2.1]octane-8-carboxamide]	0.105 µM	20200 nM	–	–	–	8.45 µM	–

Now from value to compound, other results behind:

IC50 (OGG1)	EC50 (CCL2; [2])	EC50 (CCL2; MLE12 cells, TNF-α 20 ng/ml, supernatant after 30 hours, HTRF, read-out: CCL2 (EC50))	SMILES	IC50 (MLE12 cells; Mus musculus)	EC50 (CCL2; [1])	IC50 (MLE12 cells; Mus musculus, MLE12, 24 h)	IC50 (MLE12 cells)
0.471 µM	6480 nM	–	CCNC(=O)c1cnn(-c2cccc3c2[nH]c(=O)n3C2CCN(C(=O)Nc3ccc(I)cc3)CC2)c1 [Example 87, 4-{4-[4-(Ethylcarbamoyl)-1H-pyrazol-1-yl]-2-oxo-2,3-dihydro-1H-1,3-benzodiazol-1-yl}-N-(4-iodophenyl)piperidine-1-carboxamide]	–	–	5.25 µM	–
0.09 µM	47100 nM	–	CN(C)CCNC(=O)c1cnn(-c2cccc3c2[nH]c(=O)n3C2CCN(C(=O)Nc3ccc(I)cc3)CC2)c1 [Example 89, 4-(4-(4-((2-(Dimethylamino)ethyl)carbamoyl)-1H-pyrazol-1-yl)-2-oxo-2,3-dihydro-1H-benzo[d]imidazol-1-yl)-N-(4-iodophenyl)piperidine-1-carboxamide 2,2,2-trifluoroacetate]	–	–	25.1 µM	–
0.023 µM	15600 nM	16700 nM	COc1cc(NC(=O)[C@H]2CC[C@@H](n3c(=O)[nH]c4c(Br)cccc43)CC2)ccc1C [Example 107, (Cis)-4-(4-bromo-2-oxo-2,3-dihydro-1H-1,3-benzodiazol-1-yl)-N-(3-methoxy-4-methylphenyl)cyclohexane-1-carboxamide]	–	–	7.41 µM	7.4 µM
1.36 µM	65200 nM	–	COc1cc(NC(=O)N2CCC(n3c(=O)[nH]c4c(-n5cccn5)cccc43)CC2)ccc1C [Example 117, N-(3-methoxy-4-methylphenyl)-4-[2-oxo-4-(1H-pyrazol-1-yl)-2,3-dihydro-1H-1,3-benzodiazol-1-yl]piperidine-1-carboxamide]	–	–	14.4 µM	–
0.234 µM	16700 nM	–	O=c1[nH]c2c(Br)cccc2n1[C@H]1CC[C@@H](C(=O)Nc2ccc(Cl)c(Cl)c2)CC1 [Example 118, (Cis)-4-(4-bromo-2-oxo-2,3-dihydro-1H-1,3-benzodiazol-1-yl)-N-(3,4-dichlorophenyl)cyclohexane-1-carboxamide]	–	–	5.39 µM	–
0.072 µM	17700 nM	–	O=c1[nH]c2c(Br)cccc2n1[C@H]1CC[C@@H](C(=O)Nc2ccc(Cl)cc2)CC1 [Example 119, (Cis)-4-(4-bromo-2-oxo-2,3-dihydro-1H-1,3-benzodiazol-1-yl)-N-(4-chlorophenyl)cyclohexane-1-carboxamide]	–	–	5.07 µM	–
0.071 µM	14100 nM	–	COc1cc(NC(=O)[C@H]2CC[C@@H](n3c(=O)[nH]c4c(Br)cccc43)CC2)ccc1Cl [Example 122, (Cis)-4-(4-bromo-2-oxo-2,3-dihydro-1H-1,3-benzodiazol-1-yl)-N-(4-chloro-3-methoxyphenyl)cyclohexane-1-carboxamide]	–	–	4.5 µM	–
0.026 µM	24200 nM	–	COc1ccc(NC(=O)[C@H]2CC[C@@H](n3c(=O)[nH]c4c(Br)cccc43)CC2)cc1Cl [Example 123, (Cis)-4-(4-bromo-2-oxo-2,3-dihydro-1H-1,3-benzodiazol-1-yl)-N-(3-chloro-4-methoxyphenyl)cyclohexane-1-carboxamide]	–	–	10 µM	–
0.012 µM	26500 nM	–	COc1ccc(NC(=O)[C@H]2CC[C@@H](n3c(=O)[nH]c4c(Br)cccc43)CC2)cc1C [Example 126, (Cis)-4-(4-bromo-2-oxo-2,3-dihydro-1H-1,3-benzodiazol-1-yl)-N-(4-methoxy-3-methylphenyl)cyclohexane-1-carboxamide]	–	–	15.7 µM	–
1.22 µM	28700 nM	–	O=c1[nH]c2c(Br)cccc2n1[C@H]1CC[C@@H](C(=O)Nc2ccccc2)CC1 [Example 127, (Cis)-4-(4-bromo-2-oxo-2,3-dihydro-1H-1,3-benzodiazol-1-yl)-N-phenylcyclohexane-1-carboxamide]	–	–	16.2 µM	–
